Test results taken from ChEMBL document CHEMBL1201862, “PubChem BioAssay data set” (2004).
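A five-concentration, 48-hour dose response in 96-well plates underlies each endpoint, interpolated linearly between surrounding concentrations. At the GI50, growth is halved.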 Activity calls are given as the source filed them. Cut-off read from the data, not from the text of the source: active = GI50 up to about 1.1 µM and inactive = higher.

Tests used:
Assay in all cases: inhibition of tumour cell growth, NCI panel, 48 h
CAKI-1 = test system: CAKI-1
SF-295 = test system: SF-295
A498 = test system: A498
SK-MEL-28 = test system: SK-MEL-28
SR = test system: SR
CCRF-CEM = test system: CCRF-CEM
DU-145 = test system: DU-145
TK-10 = test system: TK-10
MDA-MB-435 = test system: MDA-MB-435
SNB-19 = test system: SNB-19
MOLT-4 = test system: MOLT-4
NCI-H522 = test system: NCI-H522
UO-31 = test system: UO-31
OVCAR-4 = test system: OVCAR-4
HCT-15 = test system: HCT-15
NCI/ADR-RES = test system: NCI/ADR-RES
RPMI-8226 = test system: RPMI-8226
SW-620 = test system: SW-620
MDA-N = test system: MDA-N
HCC 2998 = test system: HCC 2998
NCI-H460 = test system: NCI-H460
IGROV-1 = test system: IGROV-1
SF-268 = test system: SF-268
SK-MEL-2 = test system: SK-MEL-2
EKVX = test system: EKVX
HL-60 = test system: HL-60
OVCAR-5 = test system: OVCAR-5
Malme-3M = test system: Malme-3M
HCT-116 = test system: HCT-116
ACHN = test system: ACHN
K562 = test system: K562
SF-539 = test system: SF-539
OVCAR-8 = test system: OVCAR-8
HOP-62 = test system: HOP-62
SNB-75 = test system: SNB-75
BT-549 = test system: BT-549
U-251 = test system: U-251
A549 = test system: A549
OVCAR-3 = test system: OVCAR-3
NCI-H23 = test system: NCI-H23
COLO 205 = test system: COLO 205
T47D = test system: T47D
SK-OV-3 = test system: SK-OV-3
Hs-578T = test system: Hs-578T
UACC-62 = test system: UACC-62
SK-MEL-5 = test system: SK-MEL-5
HT-29 = test system: HT-29
SN12C = test system: SN12C
HOP-92 = test system: HOP-92
NCI-H226 = test system: NCI-H226
MDA-MB-231 = test system: MDA-MB-231
UACC-257 = test system: UACC-257
PC-3 = test system: PC-3
KM12 = test system: KM12
786-0 = test system: 786-0
LOX IMVI = test system: LOX IMVI
MCF7 = test system: MCF7
M14 = test system: M14

In the case of `OC(c1ccc2c(c1)OCO2)c1ccc2c(c1)OCO2`, the GI50 (CAKI-1) is reported as > 100 µM (inactive), the GI50 (SF-295) is reported as > 100 µM (inactive) and the GI50 (A498) is reported as 54 µM (inactive). The GI50 (SK-MEL-28) was > 100 µM (inactive), the GI50 (SR) was > 100 µM (inactive) and the GI50 (CCRF-CEM) was > 100 µM (inactive). The GI50 (DU-145) was > 100 µM (inactive), the GI50 (TK-10) was > 100 µM (inactive) and the GI50 (MDA-MB-435) was > 100 µM (inactive). The GI50 (SNB-19) was > 100 µM (inactive), the GI50 (MOLT-4) was > 100 µM (inactive) and the GI50 (NCI-H522) was > 100 µM (inactive). For the same compound, the GI50 (UO-31) was 75 µM (inactive), the GI50 (OVCAR-4) was > 100 µM (inactive) and the GI50 (HCT-15) was > 100 µM. For the same compound, the GI50 (NCI/ADR-RES) was > 100 µM (inactive), the GI50 (RPMI-8226) was > 100 µM (inactive) and the GI50 (SW-620) was > 100 µM (inactive). The GI50 (MDA-N) was > 100 µM (inactive), the GI50 (HCC 2998) was > 100 µM (inactive) and the GI50 (NCI-H460) was > 100 µM (inactive). For the same compound, the GI50 (IGROV-1) was > 100 µM (inactive), the GI50 (SF-268) was 53.6 µM (inactive) and the GI50 (SK-MEL-2) was > 100 µM (inactive). For the same compound, the GI50 (EKVX) was > 100 µM (inactive), the GI50 (HL-60) was > 100 µM (inactive) and the GI50 (OVCAR-5) was > 100 µM (inactive). For the same compound, the GI50 (Malme-3M) was > 100 µM (inactive), the GI50 (HCT-116) was > 100 µM (inactive) and the GI50 (ACHN) was > 100 µM (inactive). For the same compound, the GI50 (K562) was > 100 µM (inactive), the GI50 (SF-539) was > 100 µM (inactive) and the GI50 (OVCAR-8) was > 100 µM (inactive). The GI50 (HOP-62) was > 100 µM (inactive), the GI50 (SNB-75) was 80.4 µM (inactive) and the GI50 (BT-549) was > 100 µM (inactive). The GI50 (U-251) was > 100 µM (inactive), the GI50 (A549) was > 100 µM (inactive) and the GI50 (OVCAR-3) was > 100 µM (inactive). For the same compound, the GI50 (NCI-H23) was > 100 µM (inactive), the GI50 (COLO 205) was > 100 µM (inactive) and the GI50 (T47D) was > 100 µM (inactive). For the same compound, the GI50 (SK-OV-3) was > 100 µM (inactive), the GI50 (Hs-578T) was > 100 µM (inactive) and the GI50 (UACC-62) was > 100 µM (inactive). For the same compound, the GI50 (SK-MEL-5) was > 100 µM (inactive), the GI50 (HT-29) was > 100 µM (inactive) and the GI50 (SN12C) was > 100 µM (inactive). For the same compound, the GI50 (HOP-92) was > 100 µM (inactive), the GI50 (NCI-H226) was > 100 µM (inactive) and the GI50 (MDA-MB-231) was > 100 µM (inactive). The GI50 (UACC-257) was > 100 µM (inactive), the GI50 (PC-3) was > 100 µM (inactive) and the GI50 (KM12) was > 100 µM (inactive). The GI50 (786-0) was > 100 µM (inactive), the GI50 (LOX IMVI) was > 100 µM (inactive) and the GI50 (MCF7) was > 100 µM (inactive). For the same compound, the GI50 (M14) was > 100 µM (inactive).
